Measured values as given in patent publication US7776863B2, “Methods of treating HIV infection” (priority 2004, dated 2010).
pEC50: −log10 of the molar value.

Tested on: HIV-1 LAI
Assay: microbe, parasite or virus in culture
Details: for Combination Indices at % HIV Inhibition (Confidence Interval) 50% / Combination Indices at % HIV Inhibition (Confidence Interval) 75% / Combination Indices at % HIV Inhibition (Confidence Interval) 90% / Overall Result (combined anti-HIV effect): Compound 1 + named drug; for Combination Indices at % HIV Inhibition (Confidence Interval) 50% / Combination Indices at % HIV Inhibition (Confidence Interval) 75% / Combination Indices at % HIV Inhibition (Confidence Interval) 90%: 95% confidence interval in parentheses; for Overall Result (combined anti-HIV effect): all ratios, MT-2 cells, HIV-1 LAI; for pEC50: Human immunodeficiency virus 1, MT2, 120 h
Experimental: Virus and cell lines. The T-cell lines, MT-2 and PM-1 were obtained through the AIDS Research and Reference Reagent Program, NIAID, and were contributed by Dr. D. Richman and Dr. R. Gallo, respectively. Both cell lines were cultured in RPMI 1640 medium supplemented with 10% fetal bovine serum, 2 mM L-glutamine and sub-cultured twice a week. The LAI strain of HIV-1 was obtained from the Fred Hutchinson Cancer Research Center, and the Bal strain was from NIH. Both virus stocks were amplified and titered in MT-2 cells (LAI) and PM-1 cells (Bal) using a virus infectivity assay.
Drug Susceptibility and Cytotoxicity Assays. For drug susceptibility assays, MT-2 cells were infected with HIV-1 LAI (or PM-1 cells with HIV-1 Bal) at an MOI of 0.005, and seeded into 96-well microtiter plates (0.1×10^6 cells/ml) containing serial dilutions of test compounds. […] Each drug ratio consisted of an array of 3-fold serial dilutions, and was performed in quadruplicate. The plates were incubated at 37° C./5% CO2. The MT-2 cells infected with HIV-1 LAI were incubated for 5 days. On day-five post-infection, 20 μl from each well was harvested and quantitated by a reverse transcriptase (RT) assay, or in samples involving non-nucleoside RT inhibitors, an MTS assay. The PM-1 cells infected with HIV-1 Bal and used for studying the combinations with CCR5 inhibitors were incubated for six days. On day-six post-infection, 20 μl from each well was harvested, 20- and 50-fold diluted and quantitated by p24 assay. Cytotoxicity assays were performed using uninfected cells, exposed to the same drug combinations, and incubated for six days. Cell viability was determined by an MTS assay. The CC50 values were calculated by using the exponential form of the median effect equation as mentioned below for calculation of EC50.
Analysis of Drug Combination Effects. For determination of CI values, drugs were diluted in a fixed ratio and multiple ratios were analyzed. The drug serial dilutions spanned a range of concentrations near the EC50 value of each compound, so that equivalent antiviral activities could be compared. Concentration-response curves were estimated for each individual drug and every combination using the median-effect equation. The equation was fit using a nonlinear regression routine (Proc Nlin) in PC SAS version 8.01 (SAS Institute Inc., SAS Version 8.01, Cary, N.C.: SAS Institute Inc., 1990).
In this equation, Fa stands for “fraction affected,” and represents the fraction of the viral load that has been inactivated. […] ED50 is drug concentration that is expected to reduce the amount of virus by 50%, and m is a parameter that reflects the slope of the concentration-response curve.
To assess antiviral effects of different drug combination treatments, combination indices (CIs) were calculated according to Chou and Rideout. The combination index was computed as CI=[D]1/[Dm]1+[D]2/[Dm]2
In this equation [Dm]1 and [Dm]2 are the concentrations of drugs that would individually produce a specific level of effect, while [D]1 and [D]2 are the concentrations of drugs in combination that would produce the same level of effect.
Theoretically, additivity is implied if the CI is equal to one, synergy if the CI is less than one, and antagonism if the CI is greater than one. […] At best, we can construct a range that contains the likely values for the CI, given the noise in the data. In this report, these ranges are reported in parentheses next to each point estimate of the CI. […] If the range fell entirely above 1.0, we would infer antagonistic behavior. If the range were to include 1.0, we would infer additivity.
In carrying out the combination experiments below, the EC50 for Compound 1 and each comparator compound was determined during the course of each study, and used in the subsequent data analysis.

[1] = EC50 ratio 1:1 (Compound 1:comparator)
[2] = EC50 ratio 1:2.5 (Compound 1:comparator)
[3] = EC50 ratio 2.5:1 (Compound 1:comparator)

SMILES	Combination Indices at % HIV Inhibition (Confidence Interval) 50% [1]	Combination Indices at % HIV Inhibition (Confidence Interval) 75% [1]	Combination Indices at % HIV Inhibition (Confidence Interval) 90% [1]	Combination Indices at % HIV Inhibition (Confidence Interval) 50% [2]	Combination Indices at % HIV Inhibition (Confidence Interval) 75% [2]	Combination Indices at % HIV Inhibition (Confidence Interval) 90% [2]	Combination Indices at % HIV Inhibition (Confidence Interval) 50% [3]	Combination Indices at % HIV Inhibition (Confidence Interval) 75% [3]	Combination Indices at % HIV Inhibition (Confidence Interval) 90% [3]	Overall Result (combined anti-HIV effect)	pEC50	Overall Result (combined anti-HIV effect) (listed as nevapiradine)
Nc1ccn([C@@H]2CS[C@H](CO)O2)c(=O)n1 [Lamivudine, lamivudine]	0.75 (0.45, 1.05)	0.79 (0.35, 1.23)	0.90 (0.11, 1.69)	0.13 (0.10, 0.16)	0.21 (0.16, 0.27)	0.39 (0.21, 0.58)	0.14 (0.10, 0.17)	0.26 (0.18, 0.33)	0.49 (0.22, 0.75)			
Cc1cccc(C)c1OCC(=O)N[C@@H](Cc1ccccc1)[C@@H](O)C[C@H](Cc1ccccc1)NC(=O)[C@H](C(C)C)N1CCCNC1=O [Lopinavir, lopinavir]	0.47 (0.38, 0.56)	0.66 (0.48, 0.84)		0.89 (0.73, 1.05)	0.90 (0.67, 1.13)	1.00 (0.60, 1.40)	0.29 (0.25, 0.33)	0.37 (0.30, 0.44)	0.51 (0.37, 0.65)	Additive-	8.40	
Cc1c(O)cccc1C(=O)N[C@@H](CSc1ccccc1)[C@H](O)CN1C[C@H]2CCCC[C@H]2C[C@H]1C(=O)NC(C)(C)C [Nelfinavir, nelfinavir]	0.39 (0.34, 0.44)	0.47 (0.39, 0.56)	0.58 (0.41, 0.74)	0.41 (0.32, 0.50)	0.81 (0.57, 1.05)	1.61 (0.84, 2.37)	0.12 (0.09, 0.15)	0.32 (0.22, 0.42)	0.87 (0.38, 1.35)	Additive-	8.52	
Cc1ccnc2c1NC(=O)c1cccnc1N2C1CC1 [Nevirapine, nevirapine]	0.19 (0.15, 0.23)	0.22 (0.16, 6.28)	0.26 (0.15, 0.38)	0.48 (0.35, 0.62)	0.66 (0.40, 0.92)	0.92 (0.35, 1.49)	0.58 (0.48, 0.67)	0.99 (0.76, 1.22)	1.71 (1.09, 2.33)	Additive-	6.97	additive-synergystic
